How the values were obtained:
Assay in all cases: cells
[1] = tested on: SW948; format: functional, cell-based; conditions: Homo sapiens;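 further: growth inhibition of SW948 cells, read out with a cell viability assay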
Description: SANGER: Inhibition of human SW948 cell growth in a cell viability assay.

[2] = tested on: HuO9; format: functional, cell-based; conditions: Homo sapiens;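 further: growth inhibition of HuO9 cells, read out with a cell viability assay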
Description: SANGER: Inhibition of human HuO9 cell growth in a cell viability assay.

[3] = tested on: MHH-ES-1; format: functional, cell-based; conditions: Homo sapiens;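 further: cell growth inhibition measured by a cell viability assay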
Description: SANGER: Inhibition of human MHH-ES-1 cell growth in a cell viability assay.

[4] = tested on: MDA-MB-157; format: functional, cell-based; conditions: Homo sapiens
Description: SANGER: Inhibition of human MDA-MB-157 cell growth in a cell viability assay.

[5] = tested on: HCC1569; format: functional, cell-based; conditions: Homo sapiens;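 further: growth inhibition of human HCC1569 cells, read out with a cell viability assay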
Description: SANGER: Inhibition of human HCC1569 cell growth in a cell viability assay.

[6] = tested on: NCI-H292; format: functional, cell-based; conditions: Homo sapiens;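 further: growth inhibition of NCI-H292 cells, read out with a cell viability assay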
Description: SANGER: Inhibition of human NCI-H292 cell growth in a cell viability assay.

[7] = tested on: NCI-H2347; format: functional, cell-based; conditions: Homo sapiens;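 further: growth inhibition of the cell line, read out with a cell viability assay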
Description: SANGER: Inhibition of human NCI-H2347 cell growth in a cell viability assay.

[8] = tested on: P12-Ichikawa; format: functional, cell-based; conditions: Homo sapiens
[9] = tested on: NB14; format: functional, cell-based, Homo sapiens; conditions: Homo sapiens, NB14;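 further: growth inhibition of NB14 cells measured with a cell viability assay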
Description: SANGER: Inhibition of human NB14 cell growth in a cell viability assay.

[10] = tested on: CAL-54; format: functional, cell-based; conditions: Homo sapiens;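 further: growth inhibition of CAL-54 cells, read out by a viability measurement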
Description: SANGER: Inhibition of human CAL-54 cell growth in a cell viability assay.

[11] = tested on: H4; format: functional, cell-based; conditions: Homo sapiens
Description: SANGER: Inhibition of human H4 cell growth in a cell viability assay.

[12] = tested on: GCT; format: functional, cell-based; conditions: Homo sapiens;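 further: GCT cell line proliferation inhibition, read out with a cell viability assay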
Description: SANGER: Inhibition of human GCT cell growth in a cell viability assay.

[13] = tested on: HuO-3N1; format: functional, cell-based; conditions: Homo sapiens;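 further: cell viability readout used to measure how strongly compounds suppress proliferation of human HuO-3N1 cells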
Description: SANGER: Inhibition of human HuO-3N1 cell growth in a cell viability assay.

[14] = tested on: HSC-3; format: functional, cell-based; conditions: Homo sapiens
Description: SANGER: Inhibition of human HSC-3 cell growth in a cell viability assay.

[15] = tested on: UO-31; format: functional, cell-based; conditions: Homo sapiens;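 further: cell viability assay measuring inhibition of cell growth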
Description: SANGER: Inhibition of human U031 cell growth in a cell viability assay.

[16] = tested on: 786-0; format: functional, cell-based; conditions: Homo sapiens
Description: SANGER: Inhibition of human 786-0 cell growth in a cell viability assay.

[17] = tested on: UMC-11; format: functional, cell-based; conditions: Homo sapiens;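 further: growth inhibition of UMC-11 cells, read out with a cell viability assay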
Description: SANGER: Inhibition of human UMC-11 cell growth in a cell viability assay.

[18] = tested on: KYSE-180; format: functional, cell-based; conditions: Homo sapiens;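 further: growth inhibition of KYSE-180 cells, read out with a cell viability assay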
Description: SANGER: Inhibition of human KYSE-180 cell growth in a cell viability assay.

[19] = tested on: SK-MEL-24; format: functional, cell-based; conditions: Homo sapiens;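 further: growth inhibition read out by a cell viability assay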
Description: SANGER: Inhibition of human SK-MEL-24 cell growth in a cell viability assay.

[20] = tested on: BPH-1; format: functional, cell-based; conditions: Homo sapiens;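 further: cell viability assay measuring growth inhibition of human BPH-1 cells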
Description: SANGER: Inhibition of human BPH-1 cell growth in a cell viability assay.

[21] = tested on: MIA PaCa-2; format: functional, cell-based; conditions: Homo sapiens;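 further: growth inhibition of MIA PaCa-2 cells, read out with a cell viability assay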
Description: SANGER: Inhibition of human MIA-PaCa-2 cell growth in a cell viability assay.

[22] = tested on: S-117; format: functional, cell-based; conditions: Homo sapiens
Description: SANGER: Inhibition of human S-117 cell growth in a cell viability assay.

[23] = tested on: MDA-MB-415; format: functional, cell-based; conditions: Homo sapiens
[24] = tested on: IGR-1; format: functional, cell-based; conditions: Homo sapiens;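 further: growth inhibition of human IGR-1 cells, read out with a cell viability assay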
Description: SANGER: Inhibition of human IGR-1 cell growth in a cell viability assay.

[25] = tested on: D-392MG; format: functional, cell-based; conditions: Homo sapiens
[26] = tested on: CHP-212; format: functional, cell-based; conditions: Homo sapiens
Description: SANGER: Inhibition of human CHP-212 cell growth in a cell viability assay.

[27] = tested on: CAL-85-1; format: functional, cell-based; conditions: Homo sapiens;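 further: growth inhibition of human CAL-85-1 cells, read out with a cell viability assay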
Description: SANGER: Inhibition of human CAL-85-1 cell growth in a cell viability assay.

[28] = tested on: A2780; format: functional, cell-based; conditions: Homo sapiens;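 further: growth inhibition of A2780 cells, read out with a cell viability assay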
Description: SANGER: Inhibition of human A2780 cell growth in a cell viability assay.

[29] = tested on: RO82-W-1; format: functional, cell-based; conditions: Homo sapiens;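 further: growth inhibition of human RO82-W-1 cells, measured with a cell viability assay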
Description: SANGER: Inhibition of human RO82-W-1 cell growth in a cell viability assay.

[30] = tested on: UACC-62; format: functional, cell-based; conditions: Homo sapiens;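 further: growth inhibition of human UACC-62 cells, read out by a cell viability assay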
Description: SANGER: Inhibition of human UACC-62 cell growth in a cell viability assay.

[31] = tested on: NCI-H520; format: functional, cell-based; conditions: Homo sapiens;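 further: growth inhibition of NCI-H520 cells, measured by a cell viability assay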
Description: SANGER: Inhibition of human NCI-H520 cell growth in a cell viability assay.

[32] = tested on: OVCAR-3; format: functional, cell-based; conditions: Homo sapiens;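 further: growth inhibition of human OVCAR-3 cells, determined by a cell viability assay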
Description: SANGER: Inhibition of human OVCAR-3 cell growth in a cell viability assay.

[33] = tested on: KYSE-450; format: functional, cell-based; conditions: Homo sapiens;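 further: cell growth inhibition measured by a viability assay in human KYSE-450 cells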
Description: SANGER: Inhibition of human KYSE-450 cell growth in a cell viability assay.

[34] = tested on: COLO-792; format: functional, cell-based; conditions: Homo sapiens
Description: SANGER: Inhibition of human COLO-792 cell growth in a cell viability assay.

[35] = tested on: SW13; format: functional, cell-based; conditions: Homo sapiens;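 further: IC50 is inhibition of SW13 cell growth, read out with a cell viability assay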
Description: SANGER: Inhibition of human SW13 cell growth in a cell viability assay.

[36] = tested on: MKN-45; format: functional, cell-based; conditions: Homo sapiens;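 further: growth inhibition of human MKN-45 cells, measured with a cell viability assay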
Description: SANGER: Inhibition of human MKN45 cell growth in a cell viability assay.

[37] = tested on: DBTRG-05MG; format: functional, cell-based; conditions: Homo sapiens;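 further: cell viability assay measuring growth inhibition of human DBTRG-05MG cells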
Description: SANGER: Inhibition of human DBTRG-05MG cell growth in a cell viability assay.

[38] = tested on: SiHa; format: functional, cell-based; conditions: Homo sapiens;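 further: Viability-based readout of growth inhibition in SiHa cells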
Description: SANGER: Inhibition of human SiHa cell growth in a cell viability assay.

[39] = tested on: SCC-25; format: functional, cell-based; conditions: Homo sapiens;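 further: growth inhibition of SCC-25 cells, measured with a cell viability assay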
Description: SANGER: Inhibition of human SCC-25 cell growth in a cell viability assay.

[40] = tested on: AU565; format: functional, cell-based; conditions: Homo sapiens;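 further: cell viability assay measuring growth inhibition of human AU565 cells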
Description: SANGER: Inhibition of human AU565 cell growth in a cell viability assay.

[41] = tested on: NCI-H2122; format: functional, cell-based; conditions: Homo sapiens;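 further: growth inhibition of the cells, read out with a cell viability assay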
Description: SANGER: Inhibition of human NCI-H2122 cell growth in a cell viability assay.

[42] = tested on: SW1990; format: functional, cell-based; conditions: Homo sapiens;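 further: cell growth inhibition determined with a viability assay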
Description: SANGER: Inhibition of human SW1990 cell growth in a cell viability assay.

[43] = tested on: KU-19-19; format: functional, cell-based; conditions: Homo sapiens
Description: SANGER: Inhibition of human KU-19-19 cell growth in a cell viability assay.

Structure (SMILES): CC1(C)CCC(c2ccc(Cl)cc2)=C(CN2CCN(c3ccc(C(=O)NS(=O)(=O)c4ccc(N[C@H](CCN5CCOCC5)CSc5ccccc5)c(S(=O)(=O)C(F)(F)F)c4)cc3)CC2)C1 [NAVITOCLAX]
- IC50 [1]: > 2 µM
- IC50 [2]: 0.267 µM
- IC50 [3]: > 2 µM
- IC50 [4]: > 2 µM
- IC50 [5]: 0.251 µM
- IC50 [6]: > 2 µM
- IC50 [7]: > 2 µM
- IC50 [8]: 0.0778 µM
- IC50 [9]: 1.14 µM
- IC50 [10]: > 2 µM
- IC50 [11]: > 2 µM
- IC50 [12]: > 2 µM
- IC50 [13]: > 2 µM
- IC50 [14]: 1.96 µM
- IC50 [15]: > 2 µM
- IC50 [16]: > 2 µM
- IC50 [17]: > 2 µM
- IC50 [18]: > 2 µM
- IC50 [19]: > 2 µM
- IC50 [20]: > 2 µM
- IC50 [21]: > 2 µM
- IC50 [22]: > 2 µM
- IC50 [23]: 1.39 µM
- IC50 [24]: > 2 µM
- IC50 [25]: > 2 µM
- IC50 [26]: > 2 µM
- IC50 [27]: > 2 µM
- IC50 [28]: > 2 µM
- IC50 [29]: > 2 µM
- IC50 [30]: > 2 µM
- IC50 [31]: > 2 µM
- IC50 [32]: > 2 µM
- IC50 [33]: > 2 µM
- IC50 [34]: 1.2 µM
- IC50 [35]: > 2 µM
- IC50 [36]: > 2 µM
- IC50 [37]: > 2 µM
- IC50 [38]: > 2 µM
- IC50 [39]: > 2 µM
- IC50 [40]: > 2 µM
- IC50 [41]: > 2 µM
- IC50 [42]: > 2 µM
- IC50 [43]: > 2 µM

Structure (SMILES): NC(=O)c1ccc(N(C(N)=O)c2c(F)cccc2F)nc1-c1ccc(F)cc1F [VX-702]
- IC50 [1]: > 2 µM
- IC50 [2]: > 2 µM
- IC50 [3]: > 2 µM
- IC50 [4]: > 2 µM
- IC50 [5]: > 2 µM
- IC50 [6]: > 2 µM
- IC50 [7]: > 2 µM
- IC50 [8]: > 2 µM
- IC50 [9]: > 2 µM
- IC50 [10]: > 2 µM
- IC50 [11]: > 2 µM
- IC50 [12]: > 2 µM
- IC50 [13]: > 2 µM
- IC50 [14]: > 2 µM
- IC50 [15]: > 2 µM
- IC50 [16]: > 2 µM
- IC50 [17]: > 2 µM
- IC50 [18]: > 2 µM
- IC50 [19]: > 2 µM
- IC50 [20]: > 2 µM
- IC50 [21]: > 2 µM
- IC50 [22]: > 2 µM
- IC50 [23]: > 2 µM
- IC50 [24]: > 2 µM
- IC50 [25]: > 2 µM
- IC50 [26]: > 2 µM
- IC50 [27]: > 2 µM
- IC50 [28]: > 2 µM
- IC50 [29]: > 2 µM
- IC50 [30]: > 2 µM
- IC50 [31]: > 2 µM
- IC50 [32]: > 2 µM
- IC50 [33]: > 2 µM
- IC50 [34]: > 2 µM
- IC50 [35]: > 2 µM
- IC50 [36]: > 2 µM
- IC50 [37]: > 2 µM
- IC50 [38]: > 2 µM
- IC50 [39]: > 2 µM
- IC50 [40]: > 2 µM
- IC50 [41]: > 2 µM
- IC50 [42]: > 2 µM
- IC50 [43]: > 2 µM

Structure (SMILES): O=C(NCCCNc1nc(Nc2cccc(NC(=O)N3CCCC3)c2)ncc1I)c1cccs1 [BX-795]
- IC50 [1]: > 5 µM
- IC50 [2]: 2.56 µM
- IC50 [3]: 2.73 µM
- IC50 [4]: 1.72 µM
- IC50 [5]: > 5 µM
- IC50 [6]: 2.58 µM
- IC50 [7]: 4.92 µM
- IC50 [8]: 1.18 µM
- IC50 [9]: 1.06 µM
- IC50 [10]: > 5 µM
- IC50 [11]: 1.1 µM
- IC50 [12]: > 5 µM
- IC50 [13]: 2.6 µM
- IC50 [14]: 1.44 µM
- IC50 [15]: > 5 µM
- IC50 [16]: > 5 µM
- IC50 [17]: 2.9 µM
- IC50 [18]: > 5 µM
- IC50 [19]: > 5 µM
- IC50 [20]: 3.14 µM
- IC50 [21]: > 5 µM
- IC50 [22]: > 5 µM
- IC50 [23]: > 5 µM
- IC50 [24]: > 5 µM
- IC50 [25]: > 5 µM
- IC50 [26]: 1.14 µM
- IC50 [27]: > 5 µM
- IC50 [28]: > 5 µM
- IC50 [29]: 4.34 µM
- IC50 [30]: > 5 µM
- IC50 [31]: > 5 µM
- IC50 [32]: > 5 µM
- IC50 [33]: > 5 µM
- IC50 [34]: > 5 µM
- IC50 [35]: > 5 µM
- IC50 [36]: > 5 µM
- IC50 [37]: > 5 µM
- IC50 [38]: > 5 µM
- IC50 [39]: > 5 µM
- IC50 [40]: > 5 µM
- IC50 [41]: > 5 µM
- IC50 [42]: > 5 µM
- IC50 [43]: > 5 µM

Structure (SMILES): NC(=O)Nc1cc(-c2cccc(F)c2)sc1C(=O)N[C@H]1CCCNC1 [AZD-7762]
- IC50 [1]: > 2 µM
- IC50 [2]: 0.298 µM
- IC50 [3]: > 2 µM
- IC50 [4]: 0.0866 µM
- IC50 [5]: > 2 µM
- IC50 [6]: 0.898 µM
- IC50 [7]: 1.24 µM
- IC50 [8]: 0.0432 µM
- IC50 [9]: 0.0614 µM
- IC50 [10]: 0.74 µM
- IC50 [11]: 0.221 µM
- IC50 [12]: 0.649 µM
- IC50 [13]: 0.941 µM
- IC50 [14]: 0.486 µM
- IC50 [15]: 0.482 µM
- IC50 [16]: 0.388 µM
- IC50 [17]: 1.77 µM
- IC50 [18]: 0.402 µM
- IC50 [19]: > 2 µM
- IC50 [20]: > 2 µM
- IC50 [21]: 0.375 µM
- IC50 [22]: 1.04 µM
- IC50 [23]: > 2 µM
- IC50 [24]: > 2 µM
- IC50 [25]: 0.456 µM
- IC50 [26]: 0.198 µM
- IC50 [27]: > 2 µM
- IC50 [28]: 0.432 µM
- IC50 [29]: > 2 µM
- IC50 [30]: 0.776 µM
- IC50 [31]: 1.38 µM
- IC50 [32]: 0.274 µM
- IC50 [33]: 1.05 µM
- IC50 [34]: > 2 µM
- IC50 [35]: > 2 µM
- IC50 [36]: 0.28 µM
- IC50 [37]: > 2 µM
- IC50 [38]: 0.859 µM
- IC50 [39]: > 2 µM
- IC50 [40]: 0.824 µM
- IC50 [41]: 0.123 µM
- IC50 [42]: 0.384 µM
- IC50 [43]: > 2 µM

Reference: ChEMBL document CHEMBL1201861, “Genomics of Drug Sensitity in Cancer screening data, Wellcome Trust Sanger Institute”
